From patent US20140011682A1, “USE OF OPEN-CHAIN CARBOXYLIC ACIDS, CARBONIC ESTERS, CARBOXAMIDES AND CARBONITRILES OF ARYL, HETEROARYL AND BENZYLSULFONAMIDE OR THE SALTS THEREOF FOR IMPROVING THE STRESS TOLERANCE IN PLANTS” (BAYER INTELLECTUAL PROPERTY GMBH, priority 2010, published 2014)

Assays:
Type in all cases: in vivo
Conditions in all cases: mean of three results
ZEAMX=Zea mays = assay: Drought stress test on crop plants in the greenhouse, spray application, Zea mays
Procedure: (§1) Seeds of monocotyledonous and dicotyledonous crop plants were placed in sandy loam in wood-fiber pots, covered with soil and cultivated in a greenhouse under good growth conditions. The test plants were treated at the early leaf stage (BBCH10 BBCH13). To ensure uniform water supply before commencement of stress, the potted plants were supplied with the maximum amount of water immediately beforehand by dam irrigation and, after application, transferred in plastic inserts in order to prevent subsequent, excessively rapid drying. The inventive compounds, formulated in the form of wettable powders (WP), wettable granules (WG), suspension concentrates (SC) or emulsion concentrates (EC), were sprayed onto the green parts of the plants as an aqueous suspension at an equivalent water application rate of 600 l/ha with addition of 0.2% wetting agent (agrotin). Substance application is followed immediately by stress treatment of the plants (cold or drought stress). For cold stress treatment, the plants were kept under the following controlled conditions:
(§2) Drought stress was induced by gradual drying out under the following conditions:
(§3) “day”: 14 hours with illumination at 26° C.
(§4) “night”: 10 hours without illumination at 18° C.
(§5) The duration of the respective stress phases was guided mainly by the state of the untreated, stressed control plants and thus varied from crop to crop. It was ended (by re-irrigating or transferring it to a greenhouse with good growth conditions) as soon as irreversible damage was observed on the untreated, stressed control plants. In the case of dicotyledonous crops, for example oilseed rape and soybeans, the duration of the drought stress phase varied between 3 and 5 days, in the case of monocotyledonous crops, for example wheat, barley or corn, between 6 and 10 days. The duration of the cold stress phase varied between 12 and 14 days. The end of the stress phase was followed by an approx. 5-7-day recovery phase, during which the plants were once again kept under good growth conditions in a greenhouse. In order to rule out any influence of the effects observed by any fungicidal action of the test compounds, it is additionally ensured that the tests proceed without fungal infection and without infection pressure.
(§6) After the recovery phase had ended, the intensities of damage were rated in visual comparison to untreated, unstressed controls of the same age (in the case of drought stress) or the same growth stage (in the case of cold stress). The intensity of damage was first assessed as a percentage (100%=plants have died, 0%=like control plants). These values were then used to calculate the efficacy of the test compounds (=percentage reduction in the intensity of damage as a result of substance application) by the following formula: […]
(§7) DVus: damage value of the untreated, stressed control
(§8) DVts: damage value of the plants treated with test compound
(§9) The tables below list mean values in each case from three results of the same test.

BRSNS=Brassica napus = assay: Drought stress test on crop plants in the greenhouse, spray application, Brassica napus
Procedure: as §1, §2, §3, §4, §5, §6, §7, §8, §9

TRZAS=Triticum aestivum = assay: Drought stress test on crop plants in the greenhouse, spray application, Triticum aestivum
Procedure: as §1, §2, §3, §4, §5, §6, §7, §8, §9

Row | Compound | EF (BRSNS): Efficacy = percentage reduction in the intensity of damage (BRSNS=Brassica napus; dosage 250 g/ha) | EF (TRZAS) Efficacy (TRZAS=Triticum aestivum; dosage 250 g/ha) | EF (TRZAS) Efficacy (TRZAS=Triticum aestivum; dosage 25 g/ha) | other results
1 | CC(C)CC(C)(C#N)NS(=O)(=O)c1ccc(Br)cc1 (centres unmarked) [I.1-14] |  |  |  | EF (ZEAMX): Efficacy = percentage reduction in the intensity of damage (ZEAMX=Zea mays; dosage 250 g/ha): >5%; EF (BRSNS): Efficacy = percentage reduction in the intensity of damage (BRSNS=Brassica napus; dosage 25 g/ha): >5%
2 | CCOC(=O)CC(NS(=O)(=O)c1ccc(Br)cc1)C(C)C (centres unmarked) [I.1-28] |  |  |  | EF (BRSNS): Efficacy = percentage reduction in the intensity of damage (BRSNS=Brassica napus; dosage 2.5 g/ha): >5%
3 | COC(=O)CC(NS(=O)(=O)c1ccc(Br)cc1)C(C)C (centres unmarked) [I.1-29, Methyl 3-{[(4-bromophenyl)sulfonyl]amino}-4-methylpentanoate] | >5% |  |  | EF (ZEAMX): Efficacy = percentage reduction in the intensity of damage (ZEAMX=Zea mays; dosage 250 g/ha): >5%
4 | CCOC(=O)CC(NS(=O)(=O)c1ccc(Br)cc1)c1ccccc1Cl (centres unmarked) [I.1-33] |  | >5% |  | EF (BRSNS): Efficacy = percentage reduction in the intensity of damage (BRSNS=Brassica napus; dosage 25 g/ha): >5%
5 | COC(=O)CC(NS(=O)(=O)c1ccc(Br)cc1)c1ccc(Br)cc1 (centres unmarked) [I.1-35] |  |  | >5% | EF (BRSNS): Efficacy = percentage reduction in the intensity of damage (BRSNS=Brassica napus; dosage 2.5 g/ha): >5%
6 | COC(=O)CC(NS(=O)(=O)c1ccc(Br)cc1)C(=O)OC (centres unmarked) [I.1-63] | >5% |  | >5% | 
7 | COC(=O)C(CC(C)C)NS(=O)(=O)c1ccc(Br)cc1 (centres unmarked) [I.1-77] | >5% |  |  | 
8 | CCOC(=O)CC(NS(=O)(=O)c1ccc(Br)cc1)C(F)(F)F (centres unmarked) [I.1-103] | >5% |  | >5% | 
9 | CCOC(=O)CC(CC(C)C)NS(=O)(=O)c1cccc2ccccc12 (centres unmarked) [I.2-62] |  | >5% |  | EF (ZEAMX): Efficacy = percentage reduction in the intensity of damage (ZEAMX=Zea mays; dosage 25 g/ha): >5%
10 | COC(=O)C(Cc1cn(C)cn1)NS(=O)(=O)c1cccc2ccccc12 (centres unmarked) [I.2-74] | >5% |  | >5% | 
11 | COC(=O)C(NS(=O)(=O)c1cccc2ccccc12)C(C)C (centres unmarked) [I.2-75] |  |  | >5% | EF (ZEAMX): Efficacy = percentage reduction in the intensity of damage (ZEAMX=Zea mays; dosage 250 g/ha): >5%; EF (BRSNS): Efficacy = percentage reduction in the intensity of damage (BRSNS=Brassica napus; dosage 25 g/ha): >5%
12 | COC(=O)C(CC(C)C)NS(=O)(=O)c1cccc2ccccc12 (centres unmarked) [I.2-77] |  | >5% |  | EF (BRSNS): Efficacy = percentage reduction in the intensity of damage (BRSNS=Brassica napus; dosage 2.5 g/ha): >5%
13 | C#CCC(NS(=O)(=O)c1cccc2ccccc12)C(=O)OC (centres unmarked) [I.2-86] | >5% | >5% |  | 
14 | CCOC(=O)CC(NS(=O)(=O)c1ccc(Br)c2ccccc12)C(C)C (centres unmarked) [I.3-28] | >5% | >5% |  | 
15 | CC(C)(C)OC(=O)CCCNS(=O)(=O)c1ccc(Br)c2ccccc12 [I.3-70] |  |  |  | EF (BRSNS): Efficacy = percentage reduction in the intensity of damage (BRSNS=Brassica napus; dosage 2.5 g/ha): >5%
16 | COC(=O)C(NS(=O)(=O)c1ccc(Br)c2ccccc12)C(C)C (centres unmarked) [I.3-75] | >5% |  | >5% | 
17 | COC(=O)C(Cc1ccc(F)cc1)NS(=O)(=O)c1ccc(Br)c2ccccc12 (centres unmarked) [I.3-90] |  |  | >5% | EF (BRSNS): Efficacy = percentage reduction in the intensity of damage (BRSNS=Brassica napus; dosage 25 g/ha): >5%
18 | CCOC(=O)CC(NS(=O)(=O)c1ccc(Br)c2ccccc12)C(F)(F)F (centres unmarked) [I.3-103] |  |  | >5% | EF (BRSNS): Efficacy = percentage reduction in the intensity of damage (BRSNS=Brassica napus; dosage 25 g/ha): >5%
19 | COC(=O)C(Cc1c[nH]cn1)NS(=O)(=O)c1ccc(Br)c2ccccc12 (centres unmarked) [I.3-106] |  | >5% |  | EF (BRSNS): Efficacy = percentage reduction in the intensity of damage (BRSNS=Brassica napus; dosage 25 g/ha): >5%
20 | CCOC(=O)CC(NS(=O)(=O)c1ccc(OC)cc1)C(C)C (centres unmarked) [I.37-28] | >5% | >5% |  | 
21 | CCCC(NS(=O)(=O)c1ccc(OC)cc1)C(=O)OC (centres unmarked) [I.37-73] |  | >5% |  | EF (BRSNS): Efficacy = percentage reduction in the intensity of damage (BRSNS=Brassica napus; dosage 25 g/ha): >5%
22 | COC(=O)C(NS(=O)(=O)c1ccc(OC)cc1)C(C)C (centres unmarked) [I.37-75] | >5% |  |  | 
23 | COC(=O)C(Cc1cccnc1)NS(=O)(=O)c1ccc(OC)cc1 (centres unmarked) [I.37-82] | >5% |  | >5% | 
24 | C#CCC(NS(=O)(=O)c1ccc(OC)cc1)C(=O)OC (centres unmarked) [I.37-86] |  | >5% |  | EF (ZEAMX): Efficacy = percentage reduction in the intensity of damage (ZEAMX=Zea mays; dosage 250 g/ha): >5%
25 | COC(=O)C(Cc1ccc(F)cc1)NS(=O)(=O)c1ccc(OC)cc1 (centres unmarked) [I.37-90] | >5% |  |  | EF (ZEAMX): Efficacy = percentage reduction in the intensity of damage (ZEAMX=Zea mays; dosage 25 g/ha): >5%
26 | COC(=O)C(COC(C)(C)C)NS(=O)(=O)c1ccc(OC)cc1 (centres unmarked) [I.37-91] | >5% |  |  | EF (ZEAMX): Efficacy = percentage reduction in the intensity of damage (ZEAMX=Zea mays; dosage 25 g/ha): >5%
27 | CCOC(=O)CC(NS(=O)(=O)c1c(C)cccc1C)C(C)C (centres unmarked) [I.52-28] |  |  |  | EF (BRSNS): Efficacy = percentage reduction in the intensity of damage (BRSNS=Brassica napus; dosage 25 g/ha): >5%
